Test results reported in article PMC12246728, “Efficient Oxidative Polymerization of Hydroxytyrosol Using Horseradish Peroxidase Immobilized on a Magnetic Silica‐Coated Nanocatalyst” (Global Challenges, 2025).

Tested on: T1, horseradish peroxidase (HRP)
T1 construct: gene PRXC1A
Assay: initial rate by absorbance at […] nm, Lineweaver-Burk
Type: biochemical
Settings: free enzyme; 1 mM H2O2, pH 7.0, 25 °C; HXT 0.5-5.0 mM

Km: 4.45 mM
SMILES: OCCc1ccc(O)c(O)c1 [HXT, hydroxytyrosol]
